Entries after “also recorded” stand apart in the source; their conditions may differ.
How the values were obtained:
[1] = test system: cathepsin L (CatL); test: cathepsin L in 50 mM acetate buffer pH 5 with 1 mM EDTA and 1 mM DTT; details: up to 8 hours
[2] = test system: cathepsin C (CatC); test: cathepsin C; details: 37°C, up to 24 hours
[3] = test system: cathepsin F (CatF); test: cathepsin F in 50 mM acetate buffer pH 5 with 1 mM EDTA and 1 mM DTT; details: up to 24 hours
[4] = test system: cathepsin A (CatA); test: cathepsin A; details: 37°C, up to 8 hours
[5] = test system: cathepsin H (CatH); test: cathepsin H in 50 mM acetate buffer pH 5 with 1 mM EDTA and 1 mM DTT; details: up to 24 hours
[6] = test system: cathepsin B (CatB); test: cathepsin B in 50 mM acetate buffer pH 5 with 1 mM EDTA and 1 mM DTT; details: up to 8 hours
[7] = target: T1, CatC (Homo sapiens, UniProt P53634); details: only at high concentrations; cited from earlier work
T1 sequence (P53634 25-134 limits assumed): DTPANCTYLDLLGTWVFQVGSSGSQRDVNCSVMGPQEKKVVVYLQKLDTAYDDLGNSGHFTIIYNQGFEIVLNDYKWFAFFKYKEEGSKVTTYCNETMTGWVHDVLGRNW
T1 sequence (P53634 231-394 limits assumed): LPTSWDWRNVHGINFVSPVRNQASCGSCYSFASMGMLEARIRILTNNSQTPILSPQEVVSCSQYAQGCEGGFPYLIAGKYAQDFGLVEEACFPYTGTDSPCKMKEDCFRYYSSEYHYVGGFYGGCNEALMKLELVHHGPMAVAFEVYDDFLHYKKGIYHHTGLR
T1 sequence (P53634 395-463 limits assumed): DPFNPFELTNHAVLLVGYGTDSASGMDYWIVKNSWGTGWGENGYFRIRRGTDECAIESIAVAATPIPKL

[8] = target: T1, CatC; test: E-64 inhibition of CatC activity; format: biochemical; details: compared with literature ~500 μM
[9] = test system: cathepsin F; test: 50 mM acetate buffer pH 5 with 1 mM EDTA and 1 mM DTT; details: up to 24 hours

Row | fragment found [1] | not cleaved [2] | not cleaved [3] | fragment found [5] | not cleaved [6] | Compound | fragment found [4] | fragment found [6] | also measured
1 | IVYK and AKTDHGAEIVYK and AKAKTDHGAEIVY | no TDHGAEIVYK after 24 h | no proteolytic digestion | TDHGAEIVYK | – | AKAKTDHGAEIVYK (D-isoAsp variant) | AKAKTDHGAEIVY, 0.5h; also recorded: AKAKTDHGAEIV; also recorded: AKAKTDHGAEI | – | fragment found [2]: IVYK
2 | – | – | – | – | no cleavage C-terminal to isomerized Asp | SEMRLEKDRFSVNL (D-Asp variant) | – | SEMRLEKDRF; also recorded: SEMRLEKDR | –
3 | AKAKTDHGAEIVY and IVYK and AKTDHGAEIVYK | no TDHGAEIVYK after 24 h | – | TDHGAEIVYK | – | AKAKTDHGAEIVYK (L-isoAsp variant) | AKAKTDHGAEIVY, 0.5h; also recorded: AKAKTDHGAEIV; also recorded: AKAKTDHGAEI | – | –
4 | – | – | – | – | no cleavage C-terminal to isomerized Asp | SEMRLEKDRFSVNL (D-isoAsp variant) | – | SEMRLEKDRF; also recorded: SEMRLEKDR | –
5 | – | – | – | – | no cleavage C-terminal to isomerized Asp | SEMRLEKDRFSVNL (L-isoAsp variant) | – | SEMRLEKDRFS and SEMRLEKDRF and SEMRLEKDR and KDRF | –
6 | – | – | – | – | – | SEMRLEKDRFSVNL | – | SEMRLEKDRF and SEMRLEKDR and LEKDRF and EKDRF and KDRF | fragment found [3]: SEMRLE; also recorded: KDRFSVNL; also recorded: SEMR, minor, longer time-points
7 | IVYK and AKTDHGAEIVYK and AKAKTDHGAEIVY | no TDHGAEIVYK after 24 h | no proteolytic digestion | TDHGAEIVYK | – | AKAKTDHGAEIVYK (D-Asp variant) | AKAKTDHGAEIVY, 0.5h; also recorded: AKAKTDHGAEIV; also recorded: AKAKTDHGAEI | – | –
8 | – | – | – | – | – | CC(C)C[C@H](NC(=O)[C@H]1O[C@@H]1C(=O)O)C(=O)NCCCCN=C(N)N (relative stereo) [E-64, L-trans-Epoxysuccinyl-leucylamido(4-guanidino) butane] | – | – | concentration at which E-64 inhibits CatC [7]: ~ 500 μM; E-64 inhibition of CatC activity observed by the authors [8]: activity inhibition at much-reduced concentration

Row | Compound | fragment found [1] | not cleaved [2] | not cleaved [3] | fragment found [5] | not cleaved [6] | fragment found [4] | fragment found [6] | also measured
9 | AKAKTDHGAEIVYK | IVYK and TDHGAEIVY and HGAEIVYK and GAEIVYK and AKTDHGAEIVYK and AKAKTDHGAEIVY | – | no proteolytic digestion | TDHGAEIVYK; also recorded: DHGAEIVYK | – | AKAKTDHGAEIVY, 0.5h; also recorded: AKAKTDHGAEIV; also recorded: AKAKTDHGAEI; also recorded: KTDHGAEIV; also recorded: AKTDHGAEIV; also recorded: KTDHGAEI; also recorded: AKTDHGAEI | – | not cleaved [9]: no proteolytic digestion; fragment found [2]: TDHGAEIVYK

Reference: PMC10449060 (Analysis & sensing, 2022)
